Data set [1] deals with T1, AURKA (Homo sapiens, UniProt O14965).
T1 construct: recombinant GST-AURKA (residues Ser123-Ser401) containing the kinase domain; GST (N); made in house; host or cells: Sf9 insect cells
T1 sequence (O14965 123-401): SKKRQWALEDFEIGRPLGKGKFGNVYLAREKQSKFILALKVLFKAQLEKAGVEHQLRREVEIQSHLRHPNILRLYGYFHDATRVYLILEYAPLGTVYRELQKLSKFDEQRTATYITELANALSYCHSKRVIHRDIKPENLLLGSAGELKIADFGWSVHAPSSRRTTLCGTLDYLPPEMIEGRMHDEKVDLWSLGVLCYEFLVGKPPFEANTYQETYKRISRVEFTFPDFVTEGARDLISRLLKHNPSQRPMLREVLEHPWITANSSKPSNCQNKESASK
The data set can be described thus: AURKA inhibition assay (Kinase-Glo). Format: biochemical. The settings on record: mean of at least two independent experiments, within ±15%. On the procedure:
AURKA assay was conducted as previously described. Briefly, the recombinant GST-AURKA (residues Ser123-Ser401) containing the kinase domain was expressed in Sf9 insect cells.
Following incubation, 50 μL Kinase-Glo Plus Reagent (Promega, Madison, WI, USA) was added, and the mixture was incubated at 25°C for 20 min.

A further data set deals with CYP 3A4 (Homo sapiens, UniProt P08684). The data set can be described thus: CYP inhibition assay, CYP 3A4. In kind it is in vitro ADME.
CYP 3A4, sequence (P08684 whole entry): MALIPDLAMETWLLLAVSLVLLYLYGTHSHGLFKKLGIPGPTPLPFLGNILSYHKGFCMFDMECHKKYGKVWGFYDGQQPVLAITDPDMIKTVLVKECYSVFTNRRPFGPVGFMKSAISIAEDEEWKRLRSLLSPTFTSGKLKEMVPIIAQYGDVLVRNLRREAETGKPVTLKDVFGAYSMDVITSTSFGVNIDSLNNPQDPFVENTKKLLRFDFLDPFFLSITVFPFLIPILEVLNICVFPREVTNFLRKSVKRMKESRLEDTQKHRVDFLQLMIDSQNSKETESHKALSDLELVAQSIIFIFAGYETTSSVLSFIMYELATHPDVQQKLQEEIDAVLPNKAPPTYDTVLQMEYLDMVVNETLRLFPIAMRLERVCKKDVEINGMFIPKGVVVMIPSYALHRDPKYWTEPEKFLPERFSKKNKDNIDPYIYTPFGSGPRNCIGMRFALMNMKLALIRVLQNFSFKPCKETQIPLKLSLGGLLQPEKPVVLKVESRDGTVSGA
The test system of data set [2] is FLT3 phosphorylation (pFLT3 at residue Y591). The data set can be described thus: Western blot, FLT3 phosphorylation in MV4-11 cells. In kind it is cell-based, human. The conditions noted are these: 2.0 h. The protocol: In order to understand the mode of action of BPR1K871, mechanistic studies in MV4-11 cell line using western blot analysis was carried out. MV4-11 cells were incubated with BPR1K871 in a dose-dependent manner for 2.0 h. Cell lysates were prepared and analyzed by immunoblotting for both FLT3 phosphorylation (pFLT3 at residue Y591) and AURKA phosphorylation (pAURKA at residue T288).
Western blot analysis was conducted as previously described. Primary antibodies against phospho-FLT3 (Tyr591) (#3461) and phospho-AURKA (Thr288) (#3079) were purchased from Cell Signaling Technology. The anti-FLT3 antibody (sc-480) and anti-AURKA antibody (07–648) were purchased from Santa Cruz Biotechnology and Upstate, respectively. The anti-β-actin rabbit polyclonal antibody (GTX110564) was purchased from GeneTex (CA, USA). The secondary antibodies horseradish peroxidase (HRP)-linked goat anti-rabbit IgG (111-035-003) were purchased from Jackson Immuno (West Grove, PA, USA). MV4-11 cells were incubated with compound BPR1K871 for 2.0 h at the indicated concentrations. Cell lysates were prepared and analyzed by immunoblotting. For AURKA analysis, the cell lysates were obtained from MV4-11 cells incubated for 16 h with 40 ngmL^-1 nocodazole, followed by drug treatment for 2.0 h at the indicated concentrations.

The subject of a further data set is MV4-11 cells. The data set can be described thus: MTS cell viability assay, MV4-11. Format: cell-based, human. The settings on record: MTS, 72 h, AML-FLT3-ITD (homozygous), supplement values ± SEM, read-out: MV4-11 EC50. On the procedure:
The MTS cell viability assay was conducted as previously described. The MOLM-13 human leukemia cell line was obtained from the German Resource Centre for Biological Material (DSMZ, Braunschweig, Germany); the MV4-11 cell line was purchased from the American Type Culture Collection (ATCC, Manassas, VA, USA). […] To determine cell viability after drug treatment, assay for MOLM-13 and MV4-11 was performed by seeding 10000 cells per well in a 96-well culture plate. […] After 16 h, cells were then treated with vehicle or various concentrations of compound in medium for 72 h. Viable cells were quantified using the MTS method (Promega, Madison, WI, USA) according to the manufacturer's recommended protocol. Results were determined by measuring the absorbance at 490 nm using a plate reader (Victor2; PerkinElmer, Shelton, CT, USA).

Another data set addresses AURKB (Homo sapiens, UniProt Q96GD4). The data set is described as follows: KINOMEScan, AURKB. The settings on record: read-out: AURKB % control.
The test system of a further data set is MKN-45 cells. The data set can be described thus: Anti-proliferative activity, MKN-45. Format: cell-based. The conditions noted are these: Human Gastric Cancer.
A further data set has as its system K562 cells. The data set can be described thus: Anti-proliferative activity, K562. Format: cell-based. The conditions noted are these: Homo sapiens, K562; CML-Bcr-Abl FLT3-negative; supplement values ± SEM; read-out: K562 EC50.
A further data set concerns the target CYP 2C9 (Homo sapiens, UniProt P11712). The data set can be described thus: CYP inhibition assay, CYP 2C9. In kind it is in vitro ADME.
Another data set relates to HCT-116 cells. The data set is described as follows: Anti-proliferative activity, HCT-116. Format: cell-based, human. The settings on record: HCT-116; Human Colon Cancer; supplement values ± SEM; read-out: HCT-116 EC50.
The target of another data set is CYP 2D6 (Homo sapiens, UniProt P10635). The data set is described as follows: CYP inhibition assay, CYP 2D6. In kind it is in vitro ADME.
CYP 2D6, sequence (P10635 whole entry): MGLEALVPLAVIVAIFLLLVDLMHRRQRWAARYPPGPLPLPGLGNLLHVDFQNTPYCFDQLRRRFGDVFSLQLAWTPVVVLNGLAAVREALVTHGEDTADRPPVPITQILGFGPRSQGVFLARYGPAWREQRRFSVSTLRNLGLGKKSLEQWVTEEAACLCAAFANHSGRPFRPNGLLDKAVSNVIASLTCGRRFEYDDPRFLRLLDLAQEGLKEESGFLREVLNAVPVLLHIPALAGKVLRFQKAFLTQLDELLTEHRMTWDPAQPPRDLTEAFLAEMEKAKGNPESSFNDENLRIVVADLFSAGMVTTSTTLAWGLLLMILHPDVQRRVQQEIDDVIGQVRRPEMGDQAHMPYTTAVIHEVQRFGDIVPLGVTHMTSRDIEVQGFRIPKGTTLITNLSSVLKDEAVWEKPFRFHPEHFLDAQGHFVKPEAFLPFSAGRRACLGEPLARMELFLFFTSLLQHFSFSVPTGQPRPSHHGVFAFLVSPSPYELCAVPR
The target of the next data set is ABL1^T315I (Homo sapiens, UniProt P00519, T315I). The data set can be described thus: KINOMEScan, ABL1 T315I. The conditions noted are these: read-out: ABL1^T315I % control.
In data set [3] the target is AURKA (Homo sapiens, UniProt O14965). The data set is described as follows: KINOMEScan, AURKA. The settings on record: read-out: AURKA % control.
Target sequence in this assay (O14965 whole entry, the tested form may be a part): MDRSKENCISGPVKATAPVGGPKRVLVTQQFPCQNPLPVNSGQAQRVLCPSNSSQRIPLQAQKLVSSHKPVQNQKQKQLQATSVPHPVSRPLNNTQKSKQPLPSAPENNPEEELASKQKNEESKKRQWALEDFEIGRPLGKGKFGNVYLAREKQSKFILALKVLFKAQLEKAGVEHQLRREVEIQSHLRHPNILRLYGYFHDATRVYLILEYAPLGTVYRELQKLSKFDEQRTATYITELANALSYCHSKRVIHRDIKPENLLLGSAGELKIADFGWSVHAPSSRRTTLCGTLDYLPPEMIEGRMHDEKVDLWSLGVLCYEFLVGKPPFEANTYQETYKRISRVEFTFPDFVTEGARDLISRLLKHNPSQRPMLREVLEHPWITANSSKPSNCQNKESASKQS

From article PMC5349910, “Discovery of BPR1K871, a quinazoline based, multi-kinase inhibitor for the treatment of AML and solid tumors: Rational design, synthesis, in vitro and in vivo evaluation” (Oncotarget, 2016) come the findings set out here.

pEC50, pIC50: −log10 of the molar value. Where two headings read alike, the source gives them in different places.

CYP 2C9, sequence (P11712 whole entry): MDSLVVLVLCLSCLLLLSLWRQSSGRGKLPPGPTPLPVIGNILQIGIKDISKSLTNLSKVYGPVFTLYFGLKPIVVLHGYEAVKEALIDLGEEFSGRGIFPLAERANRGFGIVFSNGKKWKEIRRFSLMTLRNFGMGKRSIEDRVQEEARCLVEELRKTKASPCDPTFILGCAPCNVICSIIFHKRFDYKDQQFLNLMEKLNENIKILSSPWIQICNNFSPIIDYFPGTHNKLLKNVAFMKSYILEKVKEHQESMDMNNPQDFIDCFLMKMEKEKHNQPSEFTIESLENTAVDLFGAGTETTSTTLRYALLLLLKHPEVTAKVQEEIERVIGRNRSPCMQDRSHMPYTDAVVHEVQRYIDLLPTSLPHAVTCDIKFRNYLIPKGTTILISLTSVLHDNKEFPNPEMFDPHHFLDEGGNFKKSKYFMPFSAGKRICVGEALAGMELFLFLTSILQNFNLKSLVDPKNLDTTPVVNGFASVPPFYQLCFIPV
AURKB, sequence (Q96GD4 whole entry): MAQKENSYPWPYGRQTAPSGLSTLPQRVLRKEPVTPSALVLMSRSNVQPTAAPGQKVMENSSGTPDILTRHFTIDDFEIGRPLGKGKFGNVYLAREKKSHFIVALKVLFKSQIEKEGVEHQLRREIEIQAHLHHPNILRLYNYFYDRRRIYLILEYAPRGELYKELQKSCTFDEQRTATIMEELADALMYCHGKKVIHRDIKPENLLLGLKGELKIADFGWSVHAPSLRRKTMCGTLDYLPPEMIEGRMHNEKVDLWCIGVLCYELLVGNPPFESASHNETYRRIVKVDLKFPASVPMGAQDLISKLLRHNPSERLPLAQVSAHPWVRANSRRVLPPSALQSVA

Consider `CN(C)CCCOc1ccc2c(NCCc3cnc(NC(=O)Nc4cccc(Cl)c4)s3)ncnc2c1` [BPR1K871, 1-(3-Chlorophenyl)-3-(5-(2-((7-(3-(dimethylamino)propoxy)quinazolin-4-yl)amino)ethyl)thiazol-2-yl)urea], for which the pIC50 against AURKA [1] was 7.66; at CYP 3A4, under 5.40; against CYP 2C9, under 5.40; on CYP 2D6, under 5.40. In [2], the “concentration that completely inhibited formation of pFLT3 (Tyr591)” value stood at 2 nM. The pEC50 was about 8.30 in the data set with MV4-11 cells (Homo sapiens, MV4-11, 72 h); 8.40 in the data set with MV4-11 cells (listed as 10 (BPR1K871)); 6.45 in the data set with MKN-45 cells; 5.64 in the data set with K562 cells; 6.85 in the data set on HCT-116 cells. For the same compound, the remaining binding at 1 µM was 0.2% on AURKB, under 4.4% on ABL1^T315I and 0% at AURKA [3]. Further, the “TGI ± SD” value in the data set on COLO205 tumors (COLO205, 20 mg/kg iv once a day, days 1–5 and 8–12, day 15, n = 8) turned out to be 93 ± 9%. In the data set with COLO205 tumors (COLO205 model, 20 mg/kg iv), this compound registered a body weight loss of at most 15%. For the same compound, in the data set on COLO205 tumors (COLO205 model, 20 mg/kg iv), the “mortality during the study” value is on record as “no mice died”.
